The values below come from ChEMBL document CHEMBL1201862, “PubChem BioAssay data set” (2004).

One may read the IC50 as the concentration that gives 50% inhibition. As usually defined, the EC50 is the concentration that produces a half-maximal response. In general, AC50 refers to the concentration giving half of the maximal activity seen.

The nature of test [1]: cells.
The target in a further test is Major prion protein (Homo sapiens, UniProt P04156). Type of test: functional, cell-based.
Test [2] in a line: cells. Type of test: functional, cell-based.
A short description of test [3]: cells. Conditions: HEK293.
Test [4] can be described thus: cells. This is another data set of the same source.
The nature of test [5]: cytotoxicity toward NIH3T3 fibroblasts, dose response, counter-screen, cell-based, ATP luminescence, mouse fibroblasts (AID 2010).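 Further: cells exposed to compound for about 90 hours before reading.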 Format: functional.
The target in another test is Transthyretin (Homo sapiens, UniProt P02766). Kind of test: Luminescence-based cell-based high throughput dose response assay to identify activators of Transthyretin (TTR) transcription. Type of test: functional.
Test [6] in a line: cells. The settings on record: A549.
Test [7] in a line: HepG2 cell cytotoxicity, dose response, cytotoxicity control, ATP luminescence, cherry-pick, set 6 (AID 1053125). Format: functional, cell-based.
The target in test [8] is T1, DNA repair protein RAD52 homolog (Homo sapiens, UniProt P43351).
T1 sequence (P43351 whole entry): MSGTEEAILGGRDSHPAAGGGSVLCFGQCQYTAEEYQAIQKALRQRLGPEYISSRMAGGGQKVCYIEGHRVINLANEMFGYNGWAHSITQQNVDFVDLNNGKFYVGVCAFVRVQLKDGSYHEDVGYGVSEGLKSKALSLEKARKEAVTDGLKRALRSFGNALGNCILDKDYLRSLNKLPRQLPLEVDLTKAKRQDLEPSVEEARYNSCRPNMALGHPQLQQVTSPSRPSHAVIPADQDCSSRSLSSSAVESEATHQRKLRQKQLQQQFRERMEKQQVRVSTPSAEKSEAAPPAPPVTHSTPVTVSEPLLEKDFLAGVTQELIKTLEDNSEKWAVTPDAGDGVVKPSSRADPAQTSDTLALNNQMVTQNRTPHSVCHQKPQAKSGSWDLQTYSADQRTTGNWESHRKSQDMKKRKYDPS
Type of test: functional, biochemical.

A short description of test [9]: inhibitors of intracellular T. cruzi replication, confirmation, NIH3T3 host cells, beta-gal luminescence (AID 2044).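 Further: intracellular parasites grown in NIH/3T3 mouse fibroblasts as host cells; luminescent beta-galactosidase reporter signal from transgenic T. cruzi replicating inside host cells; inhibitors lower the luminescence signal.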 Type of test: functional, cell-based.
The nature of test [10]: cells. Type of test: functional, cell-based. The source holds these as a separate data set.
The test system of another test is A-375. As to the kind of experiment: MITF: Counter assay: A375 proliferation Measured in Cell-Based System Using Plate Reader - 2084-03_Inhibitor_Dose_DryPowder_Activity. [Related pubchem assays (depositor defined):AID488944]. Type of test: functional. The settings on record: Homo sapiens.
In test [11] the target is T2, Microphthalmia-associated transcription factor (Homo sapiens, UniProt O75030).
T2 sequence (O75030 whole entry): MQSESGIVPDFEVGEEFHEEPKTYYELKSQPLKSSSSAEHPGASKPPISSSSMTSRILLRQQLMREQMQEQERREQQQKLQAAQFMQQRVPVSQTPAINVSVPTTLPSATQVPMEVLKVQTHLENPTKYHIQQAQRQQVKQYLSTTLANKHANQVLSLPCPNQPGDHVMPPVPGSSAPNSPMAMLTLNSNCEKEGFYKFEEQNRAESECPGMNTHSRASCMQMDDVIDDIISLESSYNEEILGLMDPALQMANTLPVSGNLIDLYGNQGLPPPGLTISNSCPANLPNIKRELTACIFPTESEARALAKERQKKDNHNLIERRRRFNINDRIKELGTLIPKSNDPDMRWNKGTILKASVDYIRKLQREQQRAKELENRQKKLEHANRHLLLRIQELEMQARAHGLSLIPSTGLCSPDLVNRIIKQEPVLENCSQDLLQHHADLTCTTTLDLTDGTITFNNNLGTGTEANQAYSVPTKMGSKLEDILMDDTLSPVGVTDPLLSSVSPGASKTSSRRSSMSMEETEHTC
Kind of test: TRPM1 promoter luciferase signal decrease, dose response, MITF inhibitor project, cell-based, SK-MEL-5, cherry-picked, set 3 (AID 493073).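 Further: SK-MEL-5 melanoma cells with luciferase driven by the MITF target TRPM1 promoter.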 Format: functional.

Test [12] concerns the target Tyrosyl-DNA phosphodiesterase 2 (Homo sapiens, UniProt O95551). As to the kind of experiment: human TDP2 enzyme inhibitors, dose response, biochemical, epi absorbance, IC50 (AID 743297).
Test [13] is described as follows: inhibitors of clade B AD8 Env fusion, dose response, cell-based, cherry-pick (AID 652062).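 Further: luciferase signal from cell-cell fusion driven by HIV-1 clade B AD8 Env; potency is for inhibitors of fusion seen as a drop in luminescence.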 Type of test: functional.
A short description of test [14]: C. albicans growth with fluconazole, confirmation, fluorescence, retest (AID 2467). Format: functional, cell-based.
Another test concerns INS1. Kind of test: beta cell apoptosis inhibitors, cytokine rescue, dose response, luminescence, retest (AID 449756).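 Further: cell death triggered by IL-1 beta plus TNF-alpha plus IFN-gamma mixture; protective hits raise ATP signal compared with cytokine alone wells.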 Format: functional, cell-based. Conditions: Rattus norvegicus.
Test [15] in a line: NIH-3T3 fibroblast cytotoxicity, dose response, cytotoxicity control, cell-based, fluorescence, Alamar Blue, secondary assay (AID 2327).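 Further: NIH-3T3 mouse fibroblasts cultured with fluconazole at 8 µg/mL.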 Format: functional. On the technique in general: Resazurin is reduced to fluorescent resorufin, in cell work by metabolically active cells.
For test [16], the target named is COUP transcription factor 2 (Homo sapiens, UniProt P24468). Kind of test: Luminescence-based cell-based high throughput dose response assay to identify inhibitors of COUP-TFII (NR2F2). Format: functional.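 Further: HEK293 cells transiently cotransfected with COUP-TFII expression vector and reporter; luciferase reporter luminescence driven by COUP-TFII from the pX2-168 reporter plasmid.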
A short description of test [17]: off-target signal loss in HeLa-CEM21 co-culture – HeLa F-luc CTL cells, cherry-picked, counter-screen for HIV-1 Env fusion inhibitor project, dose response (AID 652040).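 Further: potency for signal decrease marking cytotoxic or nonspecific inhibition.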 Format: functional, cell-based. (A counterscreen serves to expose hits that act by an unwanted route or on another target.)
For test [18], the target named is 1-phosphatidylinositol 4,5-bisphosphate phosphodiesterase beta-3 (Homo sapiens, UniProt Q01970). As to the kind of experiment: Fluorescence-based biochemical high throughput dose response assay to identify inhibitors of phospholipase C isozymes (PLC-B3).
Test [19] addresses 1-phosphatidylinositol 4,5-bisphosphate phosphodiesterase gamma-1 (Homo sapiens, UniProt P19174). Kind of test: Counterscreen for inhibitors of phospholipase C isozymes (PLC-B3): Fluorescence-based biochemical high throughput dose response assay to identify inhibitors of phospholipase C isozymes (PLC-gamma1).
The next test deals with Caspase-6 (Homo sapiens, UniProt P55212). As to the kind of experiment: human caspase-6 inhibitors, dose response, biochemical, VEID-R110 fluorescence, cherry-pick (AID 720632).
In another test the target is Caspase-7 (Homo sapiens, UniProt P55210). As to the kind of experiment: human caspase-7 inhibitors, dose response, selectivity assay for caspase-6 inhibitor project, biochemical, DEVD-R110 fluorescence, cherry-pick (AID 743295). Format: […].
Test [20] is described as follows: HEK293T cytotoxicity, dose response, cytotoxicity control for miR-122 modulator project, cell-based, activator set, cherry-pick (AID 720690).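 Further: HEK293T human cells scored for general mammalian cytotoxicity.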 Type of test: functional.
Test [21] can be described thus: miR-122 activators in hepatoma reporter cells, dose response, cell-based, Huh7 psiCHECK-miR122, Renilla luciferase, cherry-picked (AID 651956).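 Further: huh7 hepatoma cells stably carrying a psiCHECK-2 miR-122 sensor plasmid; renilla luciferase signal reporting endogenous miR-122 activity after 48 h compound exposure.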 Type of test: functional.
The nature of test [22]: HEK293T cytotoxicity, dose response, cytotoxicity control for miR-122 modulator project, cell-based, inhibitor set, cherry-pick, set 2 (AID 720697). Type of test: functional.
Test [23] in a line: IGROV1 ovarian cancer cell cytotoxicity, dose response, PAX8 inhibitor project, plate reader, dry powder samples (AID 743043). Format: functional, cell-based. The settings on record: IGROV-1.
For another test, the target named is Paired box protein Pax-8 (Homo sapiens, UniProt Q06710). As to the kind of experiment: inhibitors of PAX8-driven TPO luciferase reporter, dose response, RMG-I cells, cherry-pick (AID 687027).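 Further: luciferase reporter driven by Pax8 target thyroperoxidase promoter measured by SteadyGlo luminescence.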 Type of test: functional, cell-based. A general note: In a reporter assay the amount or activity of a reporter protein is the signal.
Test [24] in a line: NIH:OVCAR-3 ovarian cancer cell cytotoxicity, dose response, PAX8 inhibitor project, plate reader, dry powder samples (AID 743044). Format: functional, cell-based.
Test [25] is described as follows: cytotoxicity in OVCAR8 ovarian cancer cells, dose response, PAX8 project, cell-based, plate reader, dry powder samples (AID 743197). Type of test: functional. The settings on record: OVCAR-8.

Calls of active or inactive are those of the source.

For `CCOC(=O)CNC(=O)CSc1nc2c(C)cccc2cc1CC`, the IC50 in the test “cells [1]” was > 138 µM (inactive); at Major prion protein it was 2.76 µM (active).
`OCCNc1c2ccccc2nc2ccccc12`: the EC50 in the test “cells [2]” was > 350 µM (not active); in test [5], 7.92 µM (active); on Transthyretin it was > 167 µM (inactive); in test [9] it was 0.993 µM (active); in “cells [10]” it was 23 µM (active). The AC50 in “cells [3]” is 14.2 µM (active); in the test “cells [4]” it was 11.7 µM (active); in the test “cells [6]”, 11.6 µM (active); in [7], 17 µM (active); in test [8], 9.09 µM (active); with A-375, 28.6 µM (active). Also, the AC50 in test [11] was 7.28 µM (active).
As for `CC1=NN(c2ccccc2)C(=O)/C1=C\c1ccc(Br)s1`, the IC50 in [12] is > 128 µM (inactive).
As for `Clc1ccc(OCCN2CCN(c3ncnc4sccc34)CC2)cc1`, the AC50 in test [13] was < 0.26 µM (active); in the test with INS1, 0.503 µM (active); in test [17] it was > 70 µM (inactive). In addition, the figures for the EC50 in test [14] and in test [15] were 0.044 µM (active) and > 150 µM (inactive), respectively. Moreover, the IC50 in [16] was 1.13 µM (active).
For the molecule `O=C(CSCc1ccccc1)Nc1cccc(F)c1`, the IC50 in [18] and in test [19] was > 122 µM (inactive) each time.
On to `Cc1n[nH]c([S+]([O-])CC(=O)O)c1[N+](=O)[O-]` (centres undefined), for which the AC50 on Caspase-6 was 4.04 µM (active); at Caspase-7 it was 56.5 µM (active).
`Oc1c(Cl)cc(Cl)cc1/C=N/Nc1ncc(Br)cn1`: the AC50 in the test with INS1 was 0.388 µM (active); in test [20], 22.9 µM (active); in [21], 54.3 µM (active); in [22] it was 5.81 µM (active); in [11], 7.84 µM (active).
Take `Cc1ccc(-c2ccc([C@H]3[C@H](CO)N4CCCCN(S(=O)(=O)c5cccc(C)c5)C[C@@H]34)cc2)cc1`: the concentration at half-maximal activity (AC50) in test [23] was 55.4 µM (active); on Paired box protein Pax-8 it was 8.11 µM (active); in test [24] it was 31.7 µM (active); in [25] it was 46 µM (active).
